In ChEMBL document CHEMBL1201862, “PubChem BioAssay data set” (2004):
Active and inactive are the calls of the source. Unless noted, no cut-off for these calls is given here.

How the values were obtained:
Format in all cases: functional
[1] = biological target: Glycogen synthase kinase-3 beta (Homo sapiens, UniProt P49841); test: GSK3beta kinase inhibitors, dose response, biochemical, microfluidics, dry powder samples, set 2 (AID 623989)
[2] = biological target: Glycogen synthase kinase-3 alpha (Homo sapiens, UniProt P49840); test: human GSK3 alpha kinase inhibition, dose response, selectivity assay for GSK3beta inhibitor project, biochemical, microfluidics, dry powder samples, set 2 (AID 623978)
Glycogen synthase kinase-3 alpha, sequence (P49840 whole entry): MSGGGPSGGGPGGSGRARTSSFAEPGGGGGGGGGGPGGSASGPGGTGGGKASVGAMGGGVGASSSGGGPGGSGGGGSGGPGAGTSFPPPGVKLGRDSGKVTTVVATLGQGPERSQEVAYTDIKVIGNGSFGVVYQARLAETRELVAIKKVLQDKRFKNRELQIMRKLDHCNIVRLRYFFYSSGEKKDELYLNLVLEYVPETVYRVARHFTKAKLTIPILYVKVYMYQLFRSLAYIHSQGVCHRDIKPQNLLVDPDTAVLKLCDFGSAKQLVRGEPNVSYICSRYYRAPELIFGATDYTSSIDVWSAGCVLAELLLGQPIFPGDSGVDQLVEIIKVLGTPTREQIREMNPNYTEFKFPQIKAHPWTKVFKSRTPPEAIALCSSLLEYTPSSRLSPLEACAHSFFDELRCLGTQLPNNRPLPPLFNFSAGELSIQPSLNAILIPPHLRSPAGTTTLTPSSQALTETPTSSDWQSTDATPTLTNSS

[3] = biological target: Cyclin-dependent kinase 5/CDK5 activator 1 (Homo sapiens, UniProt Q00535); test: CDK5-p25 kinase inhibition, dose response, selectivity assay for GSK3beta inhibitor project, biochemical, microfluidic mobility shift, dry powder, set 2 (AID 623979)
Cyclin-dependent kinase 5/CDK5 activator 1, sequence (Q00535 whole entry): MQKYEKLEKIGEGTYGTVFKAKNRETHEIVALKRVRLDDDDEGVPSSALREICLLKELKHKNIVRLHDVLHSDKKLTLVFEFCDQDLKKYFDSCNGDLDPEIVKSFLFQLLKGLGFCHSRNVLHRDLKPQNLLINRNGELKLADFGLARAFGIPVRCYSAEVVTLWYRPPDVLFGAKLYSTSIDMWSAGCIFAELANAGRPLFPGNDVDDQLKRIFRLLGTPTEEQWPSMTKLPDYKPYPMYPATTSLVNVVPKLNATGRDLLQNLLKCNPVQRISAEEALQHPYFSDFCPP
Cyclin-dependent kinase 5/CDK5 activator 1, sequence (Q15078 whole entry, further chain): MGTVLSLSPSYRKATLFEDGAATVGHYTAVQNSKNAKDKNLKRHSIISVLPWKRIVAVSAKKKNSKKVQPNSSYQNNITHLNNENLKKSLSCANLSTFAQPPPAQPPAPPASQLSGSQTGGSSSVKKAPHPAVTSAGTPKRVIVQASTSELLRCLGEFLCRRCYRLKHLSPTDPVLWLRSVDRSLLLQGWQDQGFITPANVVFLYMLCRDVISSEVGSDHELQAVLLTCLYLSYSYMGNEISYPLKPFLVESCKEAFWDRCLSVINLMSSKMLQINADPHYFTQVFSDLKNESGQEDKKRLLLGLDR

Glycogen synthase kinase-3 beta, sequence (P49841 whole entry): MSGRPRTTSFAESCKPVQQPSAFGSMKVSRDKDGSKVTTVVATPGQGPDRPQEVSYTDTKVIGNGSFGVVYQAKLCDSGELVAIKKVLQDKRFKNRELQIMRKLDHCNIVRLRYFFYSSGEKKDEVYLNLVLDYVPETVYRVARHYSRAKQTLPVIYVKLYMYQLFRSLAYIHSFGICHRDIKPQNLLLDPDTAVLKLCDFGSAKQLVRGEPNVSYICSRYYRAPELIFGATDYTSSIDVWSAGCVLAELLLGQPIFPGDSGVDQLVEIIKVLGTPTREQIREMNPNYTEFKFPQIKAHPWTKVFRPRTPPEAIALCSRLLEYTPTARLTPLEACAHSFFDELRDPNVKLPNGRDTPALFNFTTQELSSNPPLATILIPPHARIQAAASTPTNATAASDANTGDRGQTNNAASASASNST

AC50 [1]: 107 nM (active) | AC50 [2]: 361 nM (active) | AC50 [3]: 38 nM (active)
Compound: Cc1cccc(C(=O)N[C@H]2C[C@@H](n3cnc(NC(=O)Cc4cccc5ccccc45)c3)C2)n1
